Measurements as given in ChEMBL document CHEMBL1201862, “PubChem BioAssay data set” (2004).
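Briefly, cells in 96-well plates were exposed to five compound concentrations for 48 h, and endpoints were estimated by linear interpolation. Here, GI50 denotes the concentration required for 50% inhibition of growth.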 Calls of active or inactive are those of the source. Rule as the data show it: active = GI50 up to about 1.1 µM and inactive = higher.

Key:
Experiment in all cases: growth of human tumour cells (NCI), 48 h
MDA-N = tested on: MDA-N
MDA-MB-435 = tested on: MDA-MB-435
SF-539 = tested on: SF-539
OVCAR-3 = tested on: OVCAR-3
SK-MEL-5 = tested on: SK-MEL-5
EKVX = tested on: EKVX
U-251 = tested on: U-251
HCC 2998 = tested on: HCC 2998
DU-145 = tested on: DU-145
SK-MEL-28 = tested on: SK-MEL-28
OVCAR-4 = tested on: OVCAR-4
NCI/ADR-RES = tested on: NCI/ADR-RES
NCI-H226 = tested on: NCI-H226
HT-29 = tested on: HT-29
PC-3 = tested on: PC-3
CCRF-CEM = tested on: CCRF-CEM
SR = tested on: SR
IGROV-1 = tested on: IGROV-1
ACHN = tested on: ACHN
RPMI-8226 = tested on: RPMI-8226

## CCCCCCCCCCOCCOCCOCCOCCCCC(O)CCCCCCCC1=C[C@H](C)OC1=O (stereo not given in full)
MDA-N
  GI50: 11.6 µM (inactive)
MDA-MB-435
  GI50: 12 µM (inactive)
SF-539
  GI50: 12.1 µM (inactive)
OVCAR-3
  GI50: 16.2 µM (inactive)
SK-MEL-5
  GI50: 0.76 µM (active)
EKVX
  GI50: 10.7 µM (inactive)
U-251
  GI50: 11.1 µM (inactive)
HCC 2998
  GI50: 13.2 µM (inactive)
DU-145
  GI50: 14.7 µM (inactive)
SK-MEL-28
  GI50: 12.2 µM (inactive)
OVCAR-4
  GI50: 12.6 µM (inactive)
NCI/ADR-RES
  GI50: 7.41 µM (inactive)
NCI-H226
  GI50: 10.9 µM (inactive)
HT-29
  GI50: 10.7 µM (inactive)
PC-3
  GI50: 9.98 µM (inactive)
CCRF-CEM
  GI50: 2.79 µM (inactive)
SR
  GI50: 0.671 µM (active)
IGROV-1
  GI50: 14.4 µM (inactive)
ACHN
  GI50: 11.7 µM (inactive)
RPMI-8226
  GI50: 0.933 µM (active)
